# Assay results as given in US20230143604A1, “QW DOSING OF GIP RECEPTOR AGONIST PEPTIDE COMPOUNDS AND USES THEREOF” (TAKEDA PHARMACEUTICAL COMPANY LIMITED, priority 2020, published 2023).
# Starred links: 1 amine or outer side, 2 acyl side, 3 side chain; linkers in the order of their positions; H or OH if unused. Non-standard residues stand in square brackets, D forms with d. Residues, ends and D or L forms follow the SMILES beside them. Groups on a side chain read outwards from the residue. *: point of attachment. C20 diacid = O=C(O)CCCCCCCCCCCCCCCCCCC(=O)*; C18 diacid = O=C(O)CCCCCCCCCCCCCCCCC(=O)*; γGlu = O=C(O)[C@H](CCC(=O)[*:2])N[*:1]; NMeY = CN[C@@H](Cc1ccc(O)cc1)C(=O)O; AEEA = NCCOCCOCC(=O)O; Aib = CC(C)(N)C(=O)O
# Experiment: physchem
# Outline: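 3 mg of peptide treated with 100 μL portions of 200 mM phosphate buffer pH 7.4, sonicating/vortexing up to 1 min, with further buffer added until fully dissolved. Solubility then quantified by HPLC.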
smiles,measurement,setting,value
CC[C@H](C)[C@H](NC(=O)[C@H](CO)NC(=O)[C@H](Cc1ccc(O)cc1)NC(=O)[C@H](CC(=O)O)NC(=O)[C@H](CO)NC(=O)[C@@H](NC(=O)[C@H](Cc1ccccc1)NC(=O)[C@@H](NC(=O)CNC(=O)[C@H](CCC(=O)O)NC(=O)C(C)(C)NC(=O)[C@H](Cc1ccc(O)cc1)NC)[C@@H](C)O)[C@@H](C)CC)C(=O)N[C@@H](C)C(=O)N[C@@H](CC(C)C)C(=O)N[C@@H](CC(=O)O)C(=O)N[C@@H](CCCNC(=N)N)C(=O)NC(C)(C)C(=O)N[C@@H](C)C(=O)N[C@@H](CCC(N)=O)C(=O)NC(C)(C)C(=O)N[C@@H](CC(=O)O)C(=O)N[C@@H](Cc1ccccc1)C(=O)N[C@H](C(=O)N[C@@H](CC(N)=O)C(=O)N[C@@H](Cc1c[nH]c2ccccc12)C(=O)N[C@@H](CC(C)C)C(=O)N[C@@H](CC(C)C)C(=O)N[C@@H](C)C(=O)N[C@@H](CCC(N)=O)C(=O)N[C@@H](CCCCNC(=O)COCCOCCNC(=O)COCCOCCNC(=O)CC[C@H](NC(=O)CC[C@H](NC(=O)CCCCCCCCCCCCCCCCC(=O)O)C(=O)O)C(=O)O)C(=O)NCC(=O)O)C(C)C [Compound 61] (H-[NMeY][Aib]EGTFISDYSIALDR[Aib]AQ[Aib]DFVNWLLAQK([AEEA-AEEA-γGlu-γGlu-C18 diacid])G-OH),solubility,pH 7.4,≥ 15 mg/mL
same,solubility,"pH 7.4, aqueous buffer",≥ 30 mg/mL
CC[C@H](C)[C@H](NC(=O)[C@H](Cc1ccccc1)NC(=O)[C@@H](NC(=O)CNC(=O)[C@H](CCC(=O)O)NC(=O)C(C)(C)NC(=O)[C@H](Cc1ccc(O)cc1)NC)[C@@H](C)O)C(=O)N[C@@H](CO)C(=O)N[C@@H](CC(=O)O)C(=O)N[C@@H](Cc1ccc(O)cc1)C(=O)N[C@@H](CO)C(=O)N[C@H](C(=O)NC(C)(C)C(=O)N[C@@H](CC(C)C)C(=O)N[C@@H](CC(=O)O)C(=O)N[C@@H](CCCNC(=N)N)C(=O)NC(C)(C)C(=O)N[C@@H](C)C(=O)N[C@@H](CCC(N)=O)C(=O)NC(C)(C)C(=O)N[C@@H](CC(=O)O)C(=O)N[C@@H](Cc1ccccc1)C(=O)N[C@H](C(=O)N[C@@H](CC(N)=O)C(=O)N[C@@H](Cc1c[nH]c2ccccc12)C(=O)N[C@@H](CC(C)C)C(=O)N[C@@H](CC(C)C)C(=O)N[C@@H](C)C(=O)N[C@@H](CCCCNC(=O)COCCOCCNC(=O)COCCOCCNC(=O)CC[C@H](NC(=O)CC[C@H](NC(=O)CCCCCCCCCCCCCCCCC(=O)O)C(=O)O)C(=O)O)C(=O)N[C@@H](CCCNC(=N)N)C(=O)NCC(=O)O)C(C)C)[C@@H](C)CC [Compound 62] (H-[NMeY][Aib]EGTFISDYSI[Aib]LDR[Aib]AQ[Aib]DFVNWLLAK([AEEA-AEEA-γGlu-γGlu-C18 diacid])RG-OH),solubility,pH 7.4,≥ 15 mg/mL
same,solubility,"pH 7.4, aqueous buffer",≥ 30 mg/mL
CC[C@H](C)[C@H](NC(=O)[C@H](Cc1ccccc1)NC(=O)[C@@H](NC(=O)CNC(=O)[C@H](CCC(=O)O)NC(=O)C(C)(C)NC(=O)[C@H](Cc1ccc(O)cc1)NC)[C@@H](C)O)C(=O)N[C@@H](CO)C(=O)N[C@@H](CC(=O)O)C(=O)N[C@@H](Cc1ccc(O)cc1)C(=O)N[C@@H](CO)C(=O)N[C@H](C(=O)NC(C)(C)C(=O)N[C@@H](CC(C)C)C(=O)N[C@@H](CC(=O)O)C(=O)N[C@@H](CCCNC(=N)N)C(=O)NC(C)(C)C(=O)N[C@@H](C)C(=O)N[C@@H](CCC(N)=O)C(=O)NC(C)(C)C(=O)N[C@@H](CCCCNC(=O)COCCOCCNC(=O)COCCOCCNC(=O)CC[C@H](NC(=O)CC[C@H](NC(=O)CCCCCCCCCCCCCCCCCCC(=O)O)C(=O)O)C(=O)O)C(=O)N[C@@H](Cc1ccccc1)C(=O)N[C@H](C(=O)N[C@@H](CC(N)=O)C(=O)N[C@@H](Cc1c[nH]c2ccccc12)C(=O)N[C@@H](CC(C)C)C(=O)N[C@@H](CC(C)C)C(=O)N[C@@H](C)C(=O)N[C@@H](CCC(N)=O)C(=O)N[C@@H](CCCCN)C(=O)NCC(=O)O)C(C)C)[C@@H](C)CC [Compound 65] (H-[NMeY][Aib]EGTFISDYSI[Aib]LDR[Aib]AQ[Aib]K([AEEA-AEEA-γGlu-γGlu-C20 diacid])FVNWLLAQKG-OH),solubility,pH 7.4,≥ 15 mg/mL
same,solubility,"pH 7.4, aqueous buffer",≥ 30 mg/mL
CC[C@H](C)[C@H](NC(=O)[C@H](Cc1ccccc1)NC(=O)[C@@H](NC(=O)CNC(=O)[C@H](CCC(=O)O)NC(=O)C(C)(C)NC(=O)[C@H](Cc1ccc(O)cc1)NC)[C@@H](C)O)C(=O)N[C@@H](CO)C(=O)N[C@@H](CC(=O)O)C(=O)N[C@@H](Cc1ccc(O)cc1)C(=O)N[C@@H](CO)C(=O)N[C@H](C(=O)NC(C)(C)C(=O)N[C@@H](CC(C)C)C(=O)N[C@@H](CC(=O)O)C(=O)N[C@@H](CCCNC(=N)N)C(=O)NC(C)(C)C(=O)N[C@@H](C)C(=O)N[C@@H](CCC(N)=O)C(=O)NC(C)(C)C(=O)N[C@@H](CCCCNC(=O)COCCOCCNC(=O)COCCOCCNC(=O)CC[C@H](NC(=O)CC[C@H](NC(=O)CCCCCCCCCCCCCCCCC(=O)O)C(=O)O)C(=O)O)C(=O)N[C@@H](Cc1ccccc1)C(=O)N[C@H](C(=O)N[C@@H](CC(N)=O)C(=O)N[C@@H](Cc1c[nH]c2ccccc12)C(=O)N[C@@H](CC(C)C)C(=O)N[C@@H](CC(C)C)C(=O)N[C@@H](C)C(=O)N[C@@H](CCC(N)=O)C(=O)N[C@@H](CCCCN)C(=O)NCC(=O)O)C(C)C)[C@@H](C)CC [Compound 66] (H-[NMeY][Aib]EGTFISDYSI[Aib]LDR[Aib]AQ[Aib]K([AEEA-AEEA-γGlu-γGlu-C18 diacid])FVNWLLAQKG-OH),solubility,pH 7.4,≥ 15 mg/mL
same,solubility,"pH 7.4, aqueous buffer",≥ 30 mg/mL
CC[C@H](C)[C@H](NC(=O)[C@H](CO)NC(=O)[C@H](Cc1ccc(O)cc1)NC(=O)[C@H](CC(=O)O)NC(=O)[C@H](CO)NC(=O)[C@@H](NC(=O)[C@H](Cc1ccccc1)NC(=O)[C@@H](NC(=O)CNC(=O)[C@H](CCC(=O)O)NC(=O)C(C)(C)NC(=O)[C@H](Cc1ccc(O)cc1)NC)[C@@H](C)O)[C@@H](C)CC)C(=O)N[C@@H](C)C(=O)N[C@@H](CC(C)C)C(=O)N[C@@H](CC(=O)O)C(=O)N[C@@H](CCCNC(=N)N)C(=O)NC(C)(C)C(=O)N[C@@H](CCCCNC(=O)COCCOCCNC(=O)COCCOCCNC(=O)CC[C@H](NC(=O)CC[C@H](NC(=O)CCCCCCCCCCCCCCCCCCC(=O)O)C(=O)O)C(=O)O)C(=O)N[C@@H](CCC(N)=O)C(=O)NC(C)(C)C(=O)N[C@@H](CC(N)=O)C(=O)N[C@@H](Cc1ccccc1)C(=O)N[C@H](C(=O)N[C@@H](CC(N)=O)C(=O)N[C@@H](Cc1c[nH]c2ccccc12)C(=O)N[C@@H](CC(C)C)C(=O)N[C@@H](CC(C)C)C(=O)N[C@@H](C)C(=O)N[C@@H](CCC(N)=O)C(=O)N[C@@H](CO)C(=O)N1CCC[C@H]1C(=O)N[C@@H](CO)C(=O)N[C@@H](CO)C(=O)NCC(=O)N[C@@H](C)C(=O)N1CCC[C@H]1C(=O)N1CCC[C@H]1C(=O)N1CCC[C@H]1C(=O)N[C@@H](CO)C(N)=O)C(C)C [Compound 68] (H-[NMeY][Aib]EGTFISDYSIALDR[Aib]K([AEEA-AEEA-γGlu-γGlu-C20 diacid])Q[Aib]NFVNWLLAQSPSSGAPPPS-NH2),solubility,"pH 7.4, solubility in phosphate buffer at pH 7.4, 200 mM phosphate buffer pH 7.4",≥ 15 mg/mL
CC[C@H](C)[C@H](NC(=O)[C@H](Cc1ccccc1)NC(=O)[C@@H](NC(=O)CNC(=O)[C@H](CCC(=O)O)NC(=O)C(C)(C)NC(=O)[C@H](Cc1ccc(O)cc1)NC)[C@@H](C)O)C(=O)N[C@@H](CO)C(=O)N[C@@H](CC(=O)O)C(=O)N[C@@H](Cc1ccc(O)cc1)C(=O)N[C@@H](CO)C(=O)N[C@H](C(=O)NC(C)(C)C(=O)N[C@@H](CC(C)C)C(=O)N[C@@H](CC(=O)O)C(=O)N[C@@H](CCCNC(=N)N)C(=O)NC(C)(C)C(=O)N[C@@H](CCCCNC(=O)COCCOCCNC(=O)COCCOCCNC(=O)CC[C@H](NC(=O)CC[C@H](NC(=O)CCCCCCCCCCCCCCCCC(=O)O)C(=O)O)C(=O)O)C(=O)N[C@@H](CCC(N)=O)C(=O)NC(C)(C)C(=O)N[C@@H](CC(=O)O)C(=O)N[C@@H](Cc1ccccc1)C(=O)N[C@H](C(=O)N[C@@H](CC(N)=O)C(=O)N[C@@H](Cc1c[nH]c2ccccc12)C(=O)N[C@@H](CC(C)C)C(=O)N[C@@H](CC(C)C)C(=O)N[C@@H](C)C(=O)N[C@@H](CCC(N)=O)C(=O)N[C@@H](CCCNC(=N)N)C(=O)NCC(=O)O)C(C)C)[C@@H](C)CC [Compound 73] (H-[NMeY][Aib]EGTFISDYSI[Aib]LDR[Aib]K([AEEA-AEEA-γGlu-γGlu-C18 diacid])Q[Aib]DFVNWLLAQRG-OH),solubility,pH 7.4,≥ 15 mg/mL
same,solubility,"pH 7.4, aqueous buffer",≥ 30 mg/mL
CC[C@H](C)[C@H](NC(=O)[C@H](Cc1ccccc1)NC(=O)[C@@H](NC(=O)CNC(=O)[C@H](CCC(=O)O)NC(=O)C(C)(C)NC(=O)[C@H](Cc1ccc(O)cc1)NC)[C@@H](C)O)C(=O)N[C@@H](CO)C(=O)N[C@@H](CC(=O)O)C(=O)N[C@@H](Cc1ccc(O)cc1)C(=O)N[C@@H](CO)C(=O)N[C@H](C(=O)NC(C)(C)C(=O)N[C@@H](CC(C)C)C(=O)N[C@@H](CC(=O)O)C(=O)N[C@@H](CCCNC(=N)N)C(=O)NC(C)(C)C(=O)N[C@@H](CCCCNC(=O)COCCOCCNC(=O)COCCOCCNC(=O)CC[C@H](NC(=O)CC[C@H](NC(=O)CCCCCCCCCCCCCCCCC(=O)O)C(=O)O)C(=O)O)C(=O)N[C@@H](CCC(N)=O)C(=O)NC(C)(C)C(=O)N[C@@H](CC(N)=O)C(=O)N[C@@H](Cc1ccccc1)C(=O)N[C@H](C(=O)N[C@@H](CC(N)=O)C(=O)N[C@@H](Cc1c[nH]c2ccccc12)C(=O)N[C@@H](CC(C)C)C(=O)N[C@@H](CC(C)C)C(=O)N[C@@H](C)C(=O)N[C@@H](CCC(N)=O)C(=O)N[C@@H](CCCNC(=N)N)C(=O)NCC(=O)O)C(C)C)[C@@H](C)CC [Compound 74] (H-[NMeY][Aib]EGTFISDYSI[Aib]LDR[Aib]K([AEEA-AEEA-γGlu-γGlu-C18 diacid])Q[Aib]NFVNWLLAQRG-OH),solubility,pH 7.4,≥ 15 mg/mL
same,solubility,"pH 7.4, aqueous buffer",≥ 30 mg/mL
CC[C@H](C)[C@H](NC(=O)[C@H](CO)NC(=O)[C@H](Cc1ccc(O)cc1)NC(=O)[C@H](CC(=O)O)NC(=O)[C@H](CO)NC(=O)[C@@H](NC(=O)[C@H](Cc1ccccc1)NC(=O)[C@@H](NC(=O)CNC(=O)[C@H](CCC(=O)O)NC(=O)C(C)(C)NC(=O)[C@H](Cc1ccc(O)cc1)NC)[C@@H](C)O)[C@@H](C)CC)C(=O)N[C@@H](C)C(=O)N[C@@H](CC(C)C)C(=O)N[C@@H](CC(=O)O)C(=O)N[C@@H](CO)C(=O)N[C@@H](CCCCNC(=O)CNC(=O)CNC(=O)CNC(=O)CNC(=O)CNC(=O)CCCCCCCCCCCCCCCCC(=O)O)C(=O)N[C@@H](C)C(=O)N[C@@H](CCC(N)=O)C(=O)NC(C)(C)C(=O)N[C@@H](CC(=O)O)C(=O)N[C@@H](Cc1ccccc1)C(=O)N[C@H](C(=O)N[C@@H](CC(N)=O)C(=O)N[C@@H](Cc1c[nH]c2ccccc12)C(=O)N[C@@H](CC(C)C)C(=O)N[C@@H](CC(C)C)C(=O)N[C@@H](C)C(=O)N[C@@H](CCC(N)=O)C(=O)N[C@@H](CCCCN)C(=O)NCC(=O)O)C(C)C [Compound 78],solubility,pH 7.4,≥ 15 mg/mL
same,solubility,"pH 7.4, aqueous buffer",≥ 30 mg/mL
